Source: patent US20240109887A1 (Viva Star Biosciences (Suzhou) Co., Ltd., priority 2021, published 2024)

How the values were obtained:
KRAS G12D/SOS1 = target: T1, KRAS G12D/SOS1 (Homo sapiens, UniProt Q07889); assay: biochemical
T1 sequence (Q07889 1-1333): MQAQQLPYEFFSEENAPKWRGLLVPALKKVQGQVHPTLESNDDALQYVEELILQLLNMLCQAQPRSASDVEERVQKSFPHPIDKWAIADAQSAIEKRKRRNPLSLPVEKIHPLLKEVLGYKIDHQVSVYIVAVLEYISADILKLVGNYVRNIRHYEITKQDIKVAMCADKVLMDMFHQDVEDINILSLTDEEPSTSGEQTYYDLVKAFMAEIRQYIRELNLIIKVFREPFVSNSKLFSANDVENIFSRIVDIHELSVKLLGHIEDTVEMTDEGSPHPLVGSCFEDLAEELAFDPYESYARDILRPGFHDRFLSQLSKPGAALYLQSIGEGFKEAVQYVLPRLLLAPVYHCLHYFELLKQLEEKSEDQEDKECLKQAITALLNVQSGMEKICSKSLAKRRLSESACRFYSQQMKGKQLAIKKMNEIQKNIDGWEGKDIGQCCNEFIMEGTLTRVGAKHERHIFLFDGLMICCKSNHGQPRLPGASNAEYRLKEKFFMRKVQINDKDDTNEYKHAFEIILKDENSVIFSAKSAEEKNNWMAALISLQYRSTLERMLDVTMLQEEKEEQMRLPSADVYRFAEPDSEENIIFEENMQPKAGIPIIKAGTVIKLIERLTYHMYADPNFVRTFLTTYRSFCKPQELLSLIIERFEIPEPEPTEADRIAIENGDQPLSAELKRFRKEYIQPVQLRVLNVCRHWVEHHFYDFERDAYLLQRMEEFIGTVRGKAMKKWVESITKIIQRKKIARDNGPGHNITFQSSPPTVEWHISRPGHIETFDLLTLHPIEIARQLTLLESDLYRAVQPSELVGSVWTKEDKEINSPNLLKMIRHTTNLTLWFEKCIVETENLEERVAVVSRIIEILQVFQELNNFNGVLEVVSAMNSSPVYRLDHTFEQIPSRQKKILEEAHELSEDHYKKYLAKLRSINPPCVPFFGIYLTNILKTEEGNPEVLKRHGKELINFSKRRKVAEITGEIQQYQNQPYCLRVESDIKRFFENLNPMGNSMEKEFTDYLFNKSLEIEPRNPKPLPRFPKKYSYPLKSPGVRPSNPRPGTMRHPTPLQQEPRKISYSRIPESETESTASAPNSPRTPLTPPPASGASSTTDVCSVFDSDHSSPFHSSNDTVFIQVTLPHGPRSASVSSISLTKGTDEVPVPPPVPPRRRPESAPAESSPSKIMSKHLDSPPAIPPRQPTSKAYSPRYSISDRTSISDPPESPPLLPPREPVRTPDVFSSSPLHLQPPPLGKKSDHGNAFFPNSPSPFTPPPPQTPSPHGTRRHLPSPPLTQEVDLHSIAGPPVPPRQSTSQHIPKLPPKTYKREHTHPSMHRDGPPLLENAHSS

KRAS-WT/SOS1 = target: T2, KRAS-WT/SOS1 (Homo sapiens, UniProt Q07889); assay: biochemical
T2 sequence (Q07889 1-1333): T1 sequence (Q07889 1-1333)

| Structure (SMILES) | IC50 (KRAS G12D/SOS1) [nM] | IC50 (KRAS-WT/SOS1) [nM] |
| --- | --- | --- |
| C[C@@H](NC(=O)c1cn(C2(C)CC2)c(=O)c2c[nH]nc12)c1cccc2c1CCC2(F)F [Example 4, (R)-N-(1-(1,1-difluoro-2,3-dihydro-1H-inden-4-yl)ethyl)-5-(1-methylcyclopropyl)-4-oxo-4,5-dihydro-2H-pyrazolo[4,3-c]pyridine-7-carboxamide] | < 100 | < 100 |
| C[C@@H](NC(=O)c1cn(C2(C)CC2)c(=O)c2c[nH]nc12)c1cccc(C(F)(F)CO)c1 [Example 5, (R)-N-(1-(3-(1,1-difluoro-2-hydroxyethyl)phenyl)ethyl)-5-(1-methylcyclopropyl)-4-oxo-4,5-dihydro-2H-pyrazolo[4,3-c]pyridine-7-carboxamide] | < 100 | < 100 |
| Cc1c([C@@H](C)NC(=O)c2cn(C3(C)CC3)c(=O)c3cn[nH]c23)cccc1C(F)(F)F [Example 6, (R)-N-(1-(2-methyl-3-(trifluoromethyl)phenyl)ethyl)-5-(1-methylcyclopropyl)-4-oxo-4,5-dihydro-1H-pyrazolo[4,3-c]pyridine-7-carboxamide] | 100 to 500 | < 100 |
| C[C@@H](NC(=O)c1cn(C2(C)CC2)c(=O)c2cn[nH]c12)c1cccc(C(C)(F)F)c1F [Example 7, (R)-N-(1-(3-(1,1-difluoroethyl)-2-fluorophenyl)ethyl)-5-(1-methylcyclopropyl)-4-oxo-4,5-dihydro-1H-pyrazolo[4,3-c]pyridine-7-carboxamide] | 100 to 500 | < 100 |
| CNCc1ccccc1-c1ccc([C@@H](C)NC(=O)c2cn(C3(C)CC3)c(=O)c3cn[nH]c23)s1 [Example 9, (R)-N-(1-(5-(2-((methylamino)methyl)phenyl)thiophen-2-yl)ethyl)-5-(1-methylcyclopropyl)-4-oxo-4,5-dihydro-1H-pyrazolo[4,3-c]pyridine-7-carboxamide] | < 100 | < 100 |
| CC(=O)N1CCC(n2cc(C(=O)N[C@H](C)c3cccc4c3CCC4(F)F)c3n[nH]cc3c2=O)CC1 [Example 10, (R)-5-(1-acetylpiperidin-4-yl)-N-(1-(1,1-difluoro-2,3-dihydro-1H-inden-4-yl)ethyl)-4-oxo-4,5-dihydro-2H-pyrazolo[4,3-c]pyridine-7-carboxamide] | < 100 | < 100 |
| C[C@@H](NC(=O)c1cn(C2CC(F)(F)C2)c(=O)c2cn[nH]c12)c1cccc2c1CCC2(F)F [Example 13, (R)—N-(1-(1,1-difluoro-2,3-dihydro-1H-inden-4-yl)ethyl)-5-(3,3-difluorocyclobutyl)-4-oxo-4,5-dihydro-1H-pyrazolo[4,3-c]pyridine-7-carboxamide] | < 100 | < 100 |
| C[C@@H](NC(=O)c1cn(C2CC(F)(F)C2)c(=O)c2cn[nH]c12)c1cccc(C(F)(F)F)c1 [Example 14, (R)-5-(3,3-difluorocyclobutyl)-4-oxo-N-(1-(3-(trifluoromethyl)phenyl)ethyl)-4,5-dihydro-1H-pyrazolo[4,3-c]pyridine-7-carboxamide] | 100 to 500 | 100 to 500 |
| CNCc1ccccc1-c1csc([C@@H](C)NC(=O)c2cn(C3CC(F)(F)C3)c(=O)c3cn[nH]c23)c1 [Example 15, 5-(3,3-difluorocyclobutyl)-N-[(1R)-1-(4-{2-[(methylamino)methyl]phenyl}thiophen-2-yl)ethyl]-4-oxo-1H,4H,5H-pyrazolo[4,3-c]pyridine-7-carboxamide] | < 100 | < 100 |
| COc1c(N2CCOCC2)cc(C(=O)N[C@H](C)c2cccc3c2CCC3(F)F)c2n[nH]cc12 [Example 18, N-[(1R)-1-(1,1-difluoro-2,3-dihydro-1H-inden-4-yl)ethyl]-4-methoxy-5-(morpholin-4-yl)-2H-indazole-7-carboxamide] | < 100 | < 100 |
| COc1c(CN(C)C)cc(C(=O)N[C@H](C)c2cccc3c2CCC3(F)F)c2n[nH]cc12 [Example 19, N-[(1R)-1-(1,1-difluoro-2,3-dihydro-1H-inden-4-yl)ethyl]-5-[(dimethylamino)methyl]-4-methoxy-2H-indazole-7-carboxamide] | 100 to 500 | 100 to 500 |
